The values that follow come from the RepoRT retention time repository.

The nature of this series: HILIC, Waters ACQUITY UPLC BEH Amide, 100 × 2.1 mm, 1.7 µm; A: water + 0.125% formic acid + 10 mM ammonium formate; B: 5% water + 95% acetonitrile + 0.125% formic acid + 10 mM ammonium formate; gradient (min/%B) 0/100 2/100 7.7/70 9.5/40 10.25/30 12.75/100 17/100. Conditions: stereoisomer not certain.
Consider `CCC(C)C(N)C(=O)O` (configuration not stated) [Isoleucine], for which the LC retention time worked out at 7.18 min. As for `Cn1cnc2c(ncn2C2OC(CO)C(O)C2O)c1=N` (configuration not stated) [1-Methyladenosine], the LC retention time was 7.46 min. The figure for `O=C(O)C1CCCN1` (configuration not stated) [Proline] is 7.83 min; for `NC(CC(=O)O)C(=O)NC(CCC(=O)O)C(=O)O` (configuration not stated) [Asp-Glu] it is 9.47 min. Consider `CNC1CC(c2ccc(Cl)c(Cl)c2)c2ccccc21` (configuration not stated) [Indatraline], for which the LC retention time was 2.88 min. The figure for `NCC(=O)NCC(=O)NCC(=O)O` [Gly-Gly-Gly] is 9.18 min; for `CC(=O)OC1(C(C)=O)CCC2C3C=C(C)C4=CC(=O)CCC4(C)C3CCC21C` (configuration not stated) [Megestrol Acetate] it is 0.96 min. The figure for `CC12CCC(=O)C=C1CCC1C2CCC2(C)C(O)CCC12` (configuration not stated) [Testosterone] is 1.05 min.

Consider `CN1CCC23c4c5ccc(O)c4OC2C(=O)CCC3(O)C1C5` (configuration not stated) [Oxymorphone], for which the LC retention time worked out at 5.5 min.

Turning to `Cc1ncc2n1-c1ccc(Cl)cc1C(c1ccccc1F)=NC2` [Midazolam], the LC retention time is 1.29 min. With `CCC(COC(=O)c1cc(OC)c(OC)c(OC)c1)(c1ccccc1)N(C)C` (configuration not stated) [Trimebutine], the LC retention time came to 1.47 min.

On to `CCC(C(N)=O)N1CCCC1=O` (configuration not stated) [Levetiracetam], for which the LC retention time amounted to 1.45 min.
